Laboratory results from ChEMBL document CHEMBL1201862, “PubChem BioAssay data set” (2004).
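1) Cells in 96-well plates. 2) Compound, 48 h, 5 concentrations. 3) Linear interpolation between surrounding doses. 4) Unreached endpoint = highest concentration. Here, GI50 denotes the concentration required for 50% inhibition of growth.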 Calls of active or inactive are those of the source. Rule as the data show it: active = GI50 up to about 1.1 µM and inactive = higher.

Experiments:
Assay in all cases: growth of human tumour cells (NCI), 48 h
SK-MEL-2 = tested on: SK-MEL-2
NCI-H23 = tested on: NCI-H23
HT-29 = tested on: HT-29
U-251 = tested on: U-251
SK-OV-3 = tested on: SK-OV-3
SNB-19 = tested on: SNB-19
SN12C = tested on: SN12C
A549 = tested on: A549
DMS-273 = tested on: DMS-273
DMS-114 = tested on: DMS-114
NCI-H522 = tested on: NCI-H522
SF-268 = tested on: SF-268
M14 = tested on: M14
HCC 2998 = tested on: HCC 2998
KM-20L2 = tested on: KM-20L2
CAKI-1 = tested on: CAKI-1
OVCAR-8 = tested on: OVCAR-8
HOP-62 = tested on: HOP-62
MOLT-4 = tested on: MOLT-4
COLO 205 = tested on: COLO 205
786-0 = tested on: 786-0
SF-539 = tested on: SF-539
TK-10 = tested on: TK-10
KM12 = tested on: KM12
HOP-18 = tested on: HOP-18
RXF 631 = tested on: RXF 631
RXF 393 = tested on: RXF 393
UACC-62 = tested on: UACC-62
RPMI-8226 = tested on: RPMI-8226
EKVX = tested on: EKVX
SF-295 = tested on: SF-295
SK-MEL-5 = tested on: SK-MEL-5
UO-31 = tested on: UO-31
CCRF-CEM = tested on: CCRF-CEM
OVCAR-4 = tested on: OVCAR-4
M19-MEL = tested on: M19-MEL
IGROV-1 = tested on: IGROV-1
K562 = tested on: K562
SNB-75 = tested on: SNB-75
LXFL 529 = tested on: LXFL 529
LOX IMVI = tested on: LOX IMVI
HL-60 = tested on: HL-60
OVCAR-5 = tested on: OVCAR-5
ACHN = tested on: ACHN
SK-MEL-28 = tested on: SK-MEL-28
OVCAR-3 = tested on: OVCAR-3
HCT-15 = tested on: HCT-15
UACC-257 = tested on: UACC-257
DLD-1 = tested on: DLD-1
NCI-H460 = tested on: NCI-H460
SW-620 = tested on: SW-620
Malme-3M = tested on: Malme-3M
HOP-92 = tested on: HOP-92
SNB-78 = tested on: SNB-78
NCI-H226 = tested on: NCI-H226
SR = tested on: SR
HCT-116 = tested on: HCT-116

For `N#CC(C#N)c1ccc(C(=O)N2CCC[C@H]2CO)cc1`, the GI50 (SK-MEL-2) was > 100 µM (inactive), the GI50 (NCI-H23) was > 100 µM (inactive) and the GI50 (HT-29) was > 100 µM (inactive). The GI50 (U-251) was > 100 µM (inactive), the GI50 (SK-OV-3) was > 100 µM (inactive) and the GI50 (SNB-19) was > 100 µM (inactive). For the same compound, the GI50 (SN12C) was > 100 µM (inactive), the GI50 (A549) was > 100 µM (inactive) and the GI50 (DMS-273) was > 100 µM (inactive). The GI50 (DMS-114) was > 100 µM (inactive), the GI50 (NCI-H522) was > 100 µM (inactive) and the GI50 (SF-268) was > 100 µM (inactive). For the same compound, the GI50 (M14) was > 100 µM (inactive), the GI50 (HCC 2998) was > 100 µM (inactive) and the GI50 (KM-20L2) was > 100 µM (inactive). For the same compound, the GI50 (CAKI-1) was > 100 µM (inactive), the GI50 (OVCAR-8) was > 100 µM (inactive) and the GI50 (HOP-62) was > 100 µM (inactive). The GI50 (MOLT-4) was > 100 µM (inactive), the GI50 (COLO 205) was > 100 µM (inactive) and the GI50 (786-0) was > 100 µM (inactive). The GI50 (SF-539) was > 100 µM (inactive), the GI50 (TK-10) was > 100 µM (inactive) and the GI50 (KM12) was > 100 µM (inactive). The GI50 (HOP-18) was > 100 µM (inactive), the GI50 (RXF 631) was > 100 µM (inactive) and the GI50 (RXF 393) was > 100 µM (inactive). The GI50 (UACC-62) was > 100 µM (inactive), the GI50 (RPMI-8226) was > 100 µM (inactive) and the GI50 (EKVX) was > 100 µM (inactive). The GI50 (SF-295) was > 100 µM (inactive), the GI50 (SK-MEL-5) was 0.471 µM (active) and the GI50 (UO-31) was > 100 µM (inactive). For the same compound, the GI50 (CCRF-CEM) was > 100 µM (inactive), the GI50 (OVCAR-4) was > 100 µM (inactive) and the GI50 (M19-MEL) was > 100 µM (inactive). The GI50 (IGROV-1) was > 100 µM (inactive), the GI50 (K562) was > 100 µM (inactive) and the GI50 (SNB-75) was > 100 µM (inactive). The GI50 (LXFL 529) was > 100 µM (inactive), the GI50 (LOX IMVI) was > 100 µM (inactive) and the GI50 (HL-60) was > 100 µM (inactive). For the same compound, the GI50 (OVCAR-5) was > 100 µM (inactive), the GI50 (ACHN) was > 100 µM (inactive) and the GI50 (SK-MEL-28) was > 100 µM (inactive). For the same compound, the GI50 (OVCAR-3) was > 100 µM (inactive), the GI50 (HCT-15) was over 100 µM and the GI50 (UACC-257) was > 100 µM (inactive). For the same compound, the GI50 (DLD-1) was > 100 µM (inactive), the GI50 (NCI-H460) was > 100 µM (inactive) and the GI50 (SW-620) was > 100 µM (inactive). For the same compound, the GI50 (Malme-3M) was > 100 µM (inactive) and the GI50 (HOP-92) was 58.2 µM (inactive).
For `C/C=C/C=C/c1cc2cc3c(c(O)c2c(=O)[nH]1)C1(CC3)C(=O)c2c(O)c3c(c(O)c2C1=O)C(=O)C(OC)=CC3=O` (configuration not stated), the GI50 (DMS-273) was 0.414 µM (active), the GI50 (DMS-114) was 0.337 µM (active) and the GI50 (KM-20L2) was 1.08 µM (active). The GI50 (HOP-18) was 0.615 µM (active), the GI50 (RXF 631) was 13.2 µM (inactive) and the GI50 (SNB-78) was 4.11 µM (inactive). For the same compound, the GI50 (M19-MEL) was 0.953 µM (active), the GI50 (LXFL 529) was 0.44 µM (active) and the GI50 (DLD-1) was 0.552 µM (active).
`COc1cc2ccc3c4ccccc4cnc3c2cc1OC` was tested, and the GI50 (SK-MEL-2) was > 100 µM (inactive), the GI50 (NCI-H23) was > 100 µM (inactive) and the GI50 (HT-29) was > 100 µM (inactive). The GI50 (U-251) was > 100 µM (inactive), the GI50 (SK-OV-3) was > 100 µM (inactive) and the GI50 (SNB-19) was > 100 µM (inactive). For the same compound, the GI50 (SN12C) was > 100 µM (inactive), the GI50 (A549) was > 100 µM (inactive) and the GI50 (NCI-H522) was > 100 µM (inactive). The GI50 (SF-268) was > 100 µM (inactive), the GI50 (M14) was > 100 µM (inactive) and the GI50 (HCC 2998) was > 100 µM (inactive). For the same compound, the GI50 (KM-20L2) was > 100 µM (inactive), the GI50 (CAKI-1) was > 100 µM (inactive) and the GI50 (OVCAR-8) was > 100 µM (inactive). The GI50 (HOP-62) was > 100 µM (inactive), the GI50 (MOLT-4) was 93.1 µM (inactive) and the GI50 (NCI-H226) was > 100 µM (inactive). The GI50 (COLO 205) was > 100 µM (inactive), the GI50 (786-0) was > 100 µM (inactive) and the GI50 (SR) was > 100 µM (inactive). For the same compound, the GI50 (SF-539) was > 100 µM (inactive), the GI50 (TK-10) was > 100 µM (inactive) and the GI50 (KM12) was > 100 µM (inactive). The GI50 (HOP-18) was > 100 µM (inactive), the GI50 (RXF 631) was > 100 µM (inactive) and the GI50 (SNB-78) was > 100 µM (inactive). For the same compound, the GI50 (RXF 393) was > 100 µM (inactive), the GI50 (UACC-62) was > 100 µM (inactive) and the GI50 (RPMI-8226) was > 100 µM (inactive). The GI50 (EKVX) was > 100 µM (inactive), the GI50 (SF-295) was > 100 µM (inactive) and the GI50 (SK-MEL-5) was > 100 µM (inactive). The GI50 (UO-31) was > 100 µM (inactive), the GI50 (CCRF-CEM) was > 100 µM (inactive) and the GI50 (OVCAR-4) was > 100 µM (inactive). The GI50 (M19-MEL) was > 100 µM (inactive), the GI50 (IGROV-1) was > 100 µM (inactive) and the GI50 (K562) was > 100 µM (inactive). The GI50 (SNB-75) was > 100 µM (inactive), the GI50 (LXFL 529) was > 100 µM (inactive) and the GI50 (LOX IMVI) was > 100 µM (inactive). For the same compound, the GI50 (HL-60) was > 100 µM (inactive), the GI50 (OVCAR-5) was > 100 µM (inactive) and the GI50 (ACHN) was > 100 µM (inactive). For the same compound, the GI50 (SK-MEL-28) was > 100 µM (inactive), the GI50 (OVCAR-3) was > 100 µM (inactive) and the GI50 (HCT-15) was over 100 µM. For the same compound, the GI50 (UACC-257) was > 100 µM (inactive), the GI50 (DLD-1) was > 100 µM (inactive) and the GI50 (NCI-H460) was > 100 µM (inactive). The GI50 (SW-620) was > 100 µM (inactive), the GI50 (Malme-3M) was > 100 µM (inactive) and the GI50 (HOP-92) was > 100 µM (inactive). For the same compound, the GI50 (HCT-116) was > 100 µM (inactive).
